Measurements from patent publication US20150051558A1, “COMPOSITION AND METHOD FOR CORNEAL PROLIFERATION” (UNIVERSITY OF CENTRAL FLORIDA RESEARCH FOUNDATION, INC., priority 2012, published 2015).
“Also recorded” adds a separate entry of the source.

Tests used:
rat cornea [1] = assay: Experiment 2: BrdU staining of cornea after MS-818 ophthalmic drops; format: in vivo
Description: (§1) According to another example similar to experiment 1, surgeries were performed to remove the left lachrymal gland from sixteen rats. MS-818 was then administered via ophthalmic drop to both eyes of twelve of the rats divided into three dosage groups, 100 μg/ml, 300 μg/ml, and 1 mg/ml. The remaining four rats served as a control group, receiving drops of phosphate buffered saline. The compound was administered three times over a period of three days. BrdU was administered during this time via intra-peritoneal injection. Rats were euthanized seven days after the first compound administration and underwent perfusion. Eyes were sliced in twenty micron slices using a cryostat. The slices were mounted on glass slides. The slides were then stained with monoclonal mouse anti BrdU primary antibody to test for the incorporation of BrdU into nuclei. TRITC conjugated donkey anti mouse secondary antibody was used to detect the primary antibody. Slides were stained with DAPI to visualize the nuclei. Images were captured of the slices in 100× magnification under TRITC, DAPI and FITC fluorescence.

rat cornea [2] = assay: Experiment 1: BrdU staining of cornea after MS-818 ophthalmic drops; format: in vivo
Description: as §1, with “Surgeries were” for “According to another example similar to experiment 1, surgeries were”, “groups, 1 mg/ml, 3 mg/ml,” for “groups, 100 μg/ml, 300 μg/ml,”, “and 10” for “and 1”

CN1Cc2nc(N3CCCCC3)ncc2C1=O.O=C(O)/C=C\C(=O)O [MS-818, 2-piperadino-6-methyl-5-oxo-5,6-dihydro-(7H) pyrrole-[3,4-d]pyrimidine maleate]
cell proliferation (BrdU staining) in cornea vs control animal (rat cornea [1]; eye drop 100 μg/ml, 300 μg/ml, 1 mg/ml, three times over three days, non surgical eye, FIG. 4): significant increase in cell proliferation over the control animal | number of nuclei positive for BrdU per field of view in the cornea (rat cornea [1]; eye drop, low, medium and high dose vs control, n=6, FIG. 5): significantly (p<0.05) higher than the control; also recorded: significant and dose dependent increase | proliferation in the non-injured eyes vs non-drug receiving control group (rat cornea [2]; ophthalmic drops, three dosage groups, preliminary results): marked increase in proliferation | BrdU positive signaling within the cornea (cell proliferation) (rat cornea [2]; rat, eye drop, high dosage (1 mg/ml), three times over three days, euthanized seven days after first administration, non surgical eye, FIG. 1B vs control FIG. 1A): significantly increased BrdU positive signaling
